# Data published in patent US6656916B1, “Glucocorticoid enhancement of gene expression” (Research Development Foundation, priority 1995, dated 2003).
# “Also recorded” adds a separate entry of the source. Like-named read-outs stand apart in the source and are kept apart here.
# Assays:
# A549 cells [1] = experiment: β-galactosidase (CPRG microtiter) activity in A549 cells transfected with reporter plasmid-cationic lipid; assay type: cell-based, human; conditions: for β-gal expression over untreated cells: 10^−6 M beclomethasone 4 hours; for βgal activity versus medium treated, transfected cells: then beclomethasone 4 hours prior to transfection
# primary rat lung cells = experiment: β-gal activity in primary rat lung cells transfected with pCMVβgal-DMRIE/DOPE; assay type: cell-based
# A549 cells [2] = experiment: X-gal staining, count of stained transfected A549 cells; assay type: cell-based, human; conditions: BEC 10^−6 M 4 hours, DNA-DMRIE/DOPE, 48 hours, stained cells in 1×1 cm^2 area
# Protocol: All transfections were performed in OPTIMEM (GIBCO-Life Technologies). One μg of pCMVβ gal was combined with 4 μg of DMRIE/DOPE or 3 μg of DOSPA/DOPE in 1 ml of OPTIMEM and incubated for 15 minutes at room temperature. Cell monolayers were washed twice in serum-free medium then overlaid with 1 ml of transfection mixture and incubated for 2.5 hours at 37° C. in a humidified, 5% CO2. DNA-liposome overlay was replaced with DMEM plus 10% FBS and cells were incubated for 48 hours. Cell lysates were harvested and assayed for total protein according to the manufacturer's instructions (BCA assay, Pierce Chemical, Rockfield, Ill.) and β -galactosidase activity was determined using a Chlorophenored-β-D-galactopyranoside colorimetric microtiter assay as described (CPRG) assay (Boerhinger-Mannheim, Germany). […]
# For stained cells, duplicate cell cultures of A549 cells were treated for 4 hours with beclomethasone dipropionate or medium only, then transfected with pCMVβgal using DMRIE/DOPE. At 48 hours, one set of cultures was lysed and βgal activity determined while the other set was fixed with neutral buffered formalin and stained with β-gal (duplicate wells for each treatment). Stained cells were counted in a 1×1 cm^2 area.
# A549 cells [3] = experiment: 3H-thymidine-labeled pCMVβgal plasmid-lipid uptake; assay type: cell-based, human; conditions: several concentrations, 4 hours pretreatment, uptake at 2 hours
# Protocol: A549 cells were pretreated with medium or beclomethasone at the dose specified for 4 hours, then transfected with ^3H-thymidine-labeled pCMVβgal. Two hours post-transfection, cells were washed, lightly trypsinized and pelleted by centrifugation. Pellets were then lysed, resuspended, and liquid scintillation cocktail added. ^3H-thymidine-labeled pCMVβgal uptake (CPM) per sample was determined. Results represent the average and standard deviation from 4 experiments and each experimental point was performed in duplicate. Fold-change=CPM beclomethasone-pretreated/CPM medium pretreated.
# ^3H-thymidine-labeled pCMVβgal plasmid was prepared by adding 1 mCi of ^3H-TdR (^3H-TdR, 74GBq/mmol, Amersham) to a 25 ml overnight culture of pCMVβgal-transformed DH5α strain of Escherichia coli. Labeled plasmid was isolated using Qiagen tip columns (100 μg size, Chatsworth, Calif.) per manufacturer's instructions. Saturable binding of the labeled DNA was determined as follows. Serial dilutions, from 1 μg-0.125 μg of ^3-H-TdR-labeled DNA was added to A549 cells and incubated for either 2, 6 or 24 hours. […] Pellets were lysed in 100 μl of lysis buffer (0.1 M TRIS and 0.5% Triton X-100), liquid scintillation cocktail added (BCS, Amersham) and ^3H-plasmid label quantitated by liquid scintillation. […] Uptake was determined as described above.
# A549 cells [4] = experiment: β-gal mRNA levels by RNA-specific PCR (RS-PCR); assay type: cell-based, human
# Protocol: A549 cells were treated with 10^-6 M beclomethasone or medium for 4 hours. Cells were transfected with 1 μg/ml pCMVβgal plus 4 μg/ml DMRIE/DOPE. At times specified (hours) after transfection, total RNA was harvested, converted to cDNA and specific βgal messages amplified by RS-PCR as described below. RS-PCR samples were resolved on a 1% TAE agarose gel and transferred to nylon filter. Filter was hybridized to a ^32P-labeled βgal probe. Filter was analyzed by betascanner and bands of the appropriate size counted. Fold-change=βgal CPM in beclomethasone treated cells/βgal. CPM in medium-treated cells. […] Briefly, cells were pre-treated with beclomethasone at 10^-6 M and transfected as described above. After the incubation was complete, cells were lysed using acidified guanidinium isothiocyante (Fluka Chemical), containing 0.75 M sodium citrate and 1% sarkosyl. RNA was harvested using the RNAeasy system (Qiagen, Chatsworth, Calif.). Total RNA quantity was determined by A260 and, 0.5 μg of the RNA was run on a gel to determine RNA integrity. Using 0.3 μg of total RNA, cDNAs were prepared using MMLV reverse transcriptase (GIBCO, Life Technologies), substituting primer […] […] One μl of cDNA was spotted to duplicate nitrocellulose filters and counted by LSC. […] Blots were evaluated on a Betagen betascanner and CPM for bands of the correct size were determined.
# [5] = various doses, 4 hours prior to transfection with pCMVβ gal or pSVβ using DMRIE/DOPE
compound,measurement,setting,value
cyclosporine A,Reversal/enhancement of reporter gene expression by another immunosuppressant,"A549 cells [1]; cells pre-treated with cyclosporine A, cell type not stated",this effect was not seen; also recorded: the effect was not seen
CC(=O)[C@H]1CC[C@H]2[C@@H]3CCC4=CC(=O)CC[C@]4(C)[C@H]3CC[C@]12C [progesterone],Enhancement of β-gal / reporter gene expression by other steroids,A549 cells [1]; [5],Enhancement of β-gal was only seen in the beclomethasone treated cells; also recorded: did not enhance reporter gene expression
Interleukin-1β [IL-1β],β-gal activity relative to medium treated cells,A549 cells [1]; 100 U/ml IL-1β or 0.5 μg/ml lipopolysacchride for 4 hours before transfection with pCMVβgal-DMRIE/DOPE,decreased β-gal activity significantly; also recorded: suppressed the degree of β-gal expression
"C[C@@H]1C[C@@H]([C@H](O)CC2CC(=O)NC(=O)C2)C(=O)[C@@H](C)C1 [CHX, cycloheximide]",β-gal activity in control cells with protein synthesis inhibitor,"A549 cells [1]; CHX 10 μg/ml, 30 minutes + 4 hours",moderately suppressed the β-gal activity
"CC1(C)O[C@@H]2C[C@H]3[C@@H]4C[C@H](F)C5=CC(=O)C=C[C@]5(C)[C@H]4[C@@H](O)C[C@]3(C)[C@]2(C(=O)CO)O1 [FLUN, flunisolide]",Degree of β-gal enhancement compared with the other glucocorticoids,"A549 cells [1]; 10^−6 M, 4 hours prior to transfection",less of an enhancing effect
same,Enhancement of β-gal activity by other topical glucocorticoids (FIG. 2B),"A549 cells [1]; 10^−6 M, 4 hours prior to transfection, pCMVβgal-DMRIE/DOPE",enhanced β-gal activity
CC(C)CCC[C@@H](C)[C@H]1CC[C@H]2[C@@H]3CC=C4C[C@@H](O)CC[C@]4(C)[C@H]3CC[C@]12C [cholesterol],Enhancement of β-gal / reporter gene expression by other steroids,A549 cells [1]; [5],Enhancement of β-gal was only seen in the beclomethasone treated cells; also recorded: did not enhance reporter gene expression
"CCC(=O)OCC(=O)[C@@]1(OC(=O)CC)[C@@H](C)C[C@H]2[C@@H]3CCC4=CC(=O)C=C[C@]4(C)[C@@]3(Cl)[C@@H](O)C[C@@]21C [beclomethasone, beclomethasone dipropionate]",Enhancement of β-gal activity,"A549 cells [1]; 5×10^−7 M to 10^−6 M, 4 hours prior to transfection, pCMVβgal-DMRIE/DOPE",2-4 fold
same,Minimum beclomethasone exposure required to see enhanced β-gal transfection,A549 cells [1]; 10^−6 M,3 to 4 h
same,β-gal expression over untreated cells,A549 cells [1]; then IL-1β 4 hours prior to transfection,2 fold
same,β-gal expression over untreated cells,A549 cells [1]; then lipopolysacchride 4 hours prior to transfection,2 fold
same,Beclomethasone-mediated enhancement of β-gal activity in presence of CHX,"A549 cells [1]; 10^−6 M beclomethasone + CHX 10 μg/ml, 4 hours",even greater in the presence of CHX
same,Enhancement of β-gal activity (FIG. 3),"A549 cells [1]; 10^−6 M beclomethasone only, 4 hours",2.5 fold
same,Pre-treatment time at which enhanced β-gal activity was maximized,"A549 cells [1]; 10^−6 M, remained maximal for the 24 hours monitored",≤ 8 h
same,Enhancement of β-gal activity,"A549 cells [1]; 10^−7 M, 4 hours prior to transfection, pCMVβgal-DMRIE/DOPE",only slight enhancement
same,"FOLD-CHANGE, βGAL ACTIVITY","A549 cells [1]; BEC 10^−6 M 4 hours, DNA-DMRIE/DOPE, 48 hours",3
same,"βgal activity versus medium treated, transfected cells",A549 cells [1]; IL-1β 4 hours first,"augmented βgal activity above what was seen in medium treated, transfected cells"
same,Concentration producing maximal enhanced reporter gene activity,"A549 cells [1]; alternate lipid, promoter or reporter",5×10^−7 to 10^−6 M
same,"βgal activity versus medium treated, transfected cells",A549 cells [1]; lipopolysacchride 4 hours first,"augmented βgal activity above what was seen in medium treated, transfected cells"
same,β-gal expression with alternate cationic lipid,A549 cells [1]; pCMVβgal and DOSPA/DOPE (FIG. 5A),also enhanced
same,β-gal enhancement with SV40 promoter vector,A549 cells [1]; pSVβ-DMRIE/DOPE (FIG. 5B),enhancement was observed
same,Effectiveness of 10^−6 M compared with 10^−7 M,primary rat lung cells; 10^−6 M,less effective than was 10^−7 M
same,"βgal activity, beclomethasone pretreatment followed by lipopolysacchride stimulation",primary rat lung cells; 4 hours beclomethasone + 4 hours lipopolysacchride,restored βgal activity to that of the medium pre-treated cells
same,Concentration of optimum enhancement in βgal activity,primary rat lung cells; 4 hours pretreatment,10^−7 M
same,Enhancement of β-gal activity,"primary rat lung cells; 4 hours pretreatment, pCMVβgal-DMRIE/DOPE, composite of several rat cell preparations",2 fold
same,"FOLD-CHANGE, X-GAL STAINING",A549 cells [2],1.5 ± 0.7
same,Uptake of radiolabeled plasmid,A549 cells [3],does not appear to enhance uptake
same,Steady-state β-gal mRNA levels versus medium-treated cells,"A549 cells [4]; T=3 and T=24 hours, 10^−6 M",definite increase in steady-state m RNA levels
same,β-gal mRNA induction,"A549 cells [4]; T=2 hours after transfection, 10^−6 M 4 hours pretreatment",18 fold
"C[C@]12CC[C@@H]3c4ccc(O)cc4CC[C@H]3[C@@H]1CC[C@@H]2O [estrogen, estradiol]",Enhancement of β-gal / reporter gene expression by other steroids,A549 cells [1],Enhancement of β-gal was only seen in the beclomethasone treated cells; also recorded: did not enhance reporter gene expression
